Patent publication US9540323B2 (BRISTOL-MYERS SQUIBB COMPANY, priority 2012, dated 2017)

System: human platelet rich plasma (PRP)
Experiment: ADP induced platelet aggregation assay
Conditions: Homo sapiens, Platelet, 5 min, read-out: PA IC50 (μM) @ 10 μM ADP, human PRP, 10 μM ADP, AUC at 5 minute
Procedure: The ability of P2Y1 antagonists covered in the present invention to inhibit platelet aggregation induced by 10 μM ADP was tested using human platelet rich plasma (PRP) as described in Platelet Protocols: Research and Clinical Laboratory Procedures (White, M. M. et al., Academic Press (1999)). Human blood was collected in 30 μM (final concentration in blood) argatroban (GSK) as the anticoagulant at a ratio of 1 mL per 9 mL of blood. The PRP was isolated by centrifugation at 170 g for 12 minutes. The platelet poor plasma (PPP) was used as the blank for optical aggregometry. Compounds of the present invention in DMSO solution was preincubated with 250 μL PRP at 37° C. for 1 minute with stirring speed of 1000 rpm. Aggregation was initiated by addition of 2.5 μL of 1 mM ADP (Chrono-log, Havertown, Pa.) for a final ADP concentration of 10 μM. Platelet aggregation was monitored using Optical Aggregometer (Chrono-log, Havertown, Pa.) and the area under the curve (AUC) at 5 minute was measured. IC50 was calculated using vehicle control as 0% inhibition.

| Structure (SMILES) | IC50 [µM] |
| --- | --- |
| CCC1(CC)CN(c2ccccc2NC(=O)Nc2nc3ccc(F)cc3s2)c2c(O)ccc(F)c21 [Example 32, 1-(2-(3,3-Diethyl-4-fluoro-7-hydroxyindolin-1-yl)phenyl)-3-(6-fluorobenzo[d]thiazol-2-yl)urea] | 0.37 |
| CC1(C)CN(c2ccccc2NC(=O)Nc2ccc(OC(F)(F)F)cc2)c2c(O)ccc(-c3ccc(F)nc3)c21 [Example 115, 1-(2-(4-(6-Fluoropyridin-3-yl)-7-hydroxy-3,3-dimethylindolin-1-yl)phenyl)-3-(4-(trifluoromethoxy)phenyl) urea] | 0.31 |
| COc1cncc(-c2ccc(O)c3c2C(C)(C)CN3c2ccccc2NC(=O)Nc2ccc(OC(F)(F)F)cc2)c1 [Example 118, 1-(2-(7-Hydroxy-4-(5-methoxypyridin-3-yl)-3,3-dimethylindolin-1-yl)phenyl)-3-(4-(trifluoromethoxy)phenyl) urea] | 0.6 |
| CC1(C)CN(c2ccccc2NC(=O)Nc2ccc(OC(F)(F)F)cc2)c2c(O)ccc(-c3ccc(Cl)cn3)c21 [Example 122, 1-(2-(4-(5-Chloropyridin-2-yl)-7-hydroxy-3,3-dimethylindolin-1-yl)phenyl)-3-(4-(trifluoromethoxy)phenyl)urea] | 0.51 |
| CC1(C)CN(c2ccccc2NC(=O)Nc2ccc(OC(F)(F)F)cc2)c2c(O)ccc(-c3nc4ccc(Cl)cc4s3)c21 [Example 136, 1-(2-(4-(6-Chlorobenzo[d]thiazol-2-yl)-7-hydroxy-3,3-dimethylindolin-1-yl)phenyl)-3-(4-(trifluoromethoxy)phenyl)urea] | 0.5 |
| CC1(C)CN(c2ccccc2NC(=O)Nc2nc3ccc(F)cc3s2)c2c(O)ccc(-c3nc4ccc(Cl)cc4s3)c21 [Example 137, 1-(2-(4-(6-Chlorobenzo[d]thiazol-2-yl)-7-hydroxy-3,3-dimethylindolin-1-yl)phenyl)-3-(6-fluorobenzo[d]thiazol-2-yl)urea] | 1.06 |
| CC1(C)CN(c2ccccc2NC(=O)Nc2nc3ccc(F)cc3s2)c2c(O)cc(F)c(-c3nc4cc(Cl)ccc4s3)c21 [Example 138, 1-(2-(4-(5-Chlorobenzo[d]thiazol-2-yl)-5-fluoro-7-hydroxy-3,3-dimethylindolin-1-yl)phenyl)-3-(6-fluorobenzo[d]thiazol-2-yl)urea] | 0.47 |
| CC1(C)CN(c2ccccc2NC(=O)Nc2nc3ccc(Cl)cc3s2)c2c(O)cc(F)c(-c3nc4ccc(F)cc4s3)c21 [Example 139, 1-(6-Chlorobenzo[d]thiazol-2-yl)-3-(2-(5-fluoro-4-(6-fluorobenzo[d]thiazol-2-yl)-7-hydroxy-3,3-dimethylindolin-1-yl)phenyl)urea] | 0.57 |
| CC1(C)CN(c2ccccc2NC(=O)Nc2nc3ccc(F)cc3s2)c2c(O)cc(F)c(-c3ccc(Cl)s3)c21 [Example 140, 1-(2-(4-(5-Chlorothiophen-2-yl)-5-fluoro-7-hydroxy-3,3-dimethylindolin-1-yl)phenyl)-3-(6-fluorobenzo[d]thiazol-2-yl)urea] | 0.17 |
| CC1(C)CN(c2ccccc2NC(=O)Nc2nc3ccc(Cl)nc3s2)c2c(O)cc(F)c(-c3nc4cc(Cl)ccc4s3)c21 [Example 141, 1-(2-(4-(5-Chlorobenzo[d]thiazol-2-yl)-5-fluoro-7-hydroxy-3,3-dimethylindolin-1-yl)phenyl)-3-(5-chlorothiazolo[5,4-b]pyridin-2-yl)urea] | 0.55 |
| CC1(C)CN(c2ccccc2NC(=O)Nc2ccc(OC(F)(F)F)cc2)c2c(O)cc(F)c(-c3ccc(Cl)s3)c21 [Example 142, 1-(2-(4-(5-Chlorothiophen-2-yl)-5-fluoro-7-hydroxy-3,3-dimethylindolin-1-yl)phenyl)-3-(4-(trifluoromethoxy)phenyl)urea] | 0.13 |
| CC1(C)CN(c2ccccc2NC(=O)Nc2nc3ccc(Cl)nc3s2)c2c(O)cc(F)c(-c3nc4ccc(F)cc4s3)c21 [Example 143, 1-(5-Chlorothiazolo[5,4-b]pyridin-2-yl)-3-(2-(5-fluoro-4-(6-fluorobenzo[d]thiazol-2-yl)-7-hydroxy-3,3-dimethylindolin-1-yl)phenyl)urea] | 0.33 |
